The text below walks through data of publication PMC7582705, “Structure-Based Discovery of Novel Chemical Classes of Autotaxin Inhibitors” (International Journal of Molecular Sciences, 2020).

Where two headings read alike, the source gives them in different places. A value given as a limit tells only on which side of the number the result lay.

One series in a line: Solubility (Table S1). To be noted: YES/NO.
In the next series the target is ATX (Homo sapiens, UniProt Q13822). Nature of the series: Amplex Red Lyso-phospholipase D assay, human ATX. The series is classed as biochemical. Also noted: purchased Sino Biological. To be noted: recombinant human ATX 2 nM, LPC 16:0 substrate, Amplex Red. Here is the method:
All compounds proposed were assessed for their ATX inhibitory activity in vitro using the Amplex Red assay. The Amplex Red Lyso-phospholipase D assay is a fluorometry-based assay providing a sensitive method for measuring Lyso-phospholipase D (ATX) activity in vitro. In this enzyme-coupled assay, ATX activity is monitored indirectly using 10-acetyl-3,7-dihydrophenoxazine (Amplex Red reagent), a sensitive fluorogenic probe for H2O2. ATX initially cleaves the Lysophosphatidylcholine (LPC) substrate to yield choline and Lysophosphatidic acid (LPA), while choline gets subsequently oxidized by choline oxidase to betaine and H2O2. Lastly, H2O2, in the presence of horseradish peroxidase (HRP), reacts with Amplex Red reagent in a 1:1 stoichiometry to generate the highly fluorescent product resorufin.
The inhibition assay was performed as previously described with some modifications in order to accommodate the newly-discovered lag phase in ATX kinetics. To this end, and in order to provide adequate time to the hydrolysis of LPC by ATX, we added a 30min incubation period between ATX, inhibitors and LPC. Briefly, 2 μL of different concentrations of inhibitors diluted in DMSO (Sigma-Aldrich, St. Louis, MO, USA) were incubated with 50 µL of ATX 8 nM (human or mouse ATX from Sino Biological), and 48 µL reaction buffer (50 mM Tris-Cl pH 8.0 from Thermo Fisher Scientific, Waltham, MA, USA and 5 mM CaCl2 from Honeywell-Fluka, Charlotte, NC, USA) in a black 96-well microplate for 15 min at 37 °C. Thence, another 50 µL of reaction buffer with 200 μM LPC substrate 16:0 (Avanti Polar Lipids Inc, Alabaster, AL, USA) ([…]) was added to the reaction mixture and incubated for 30 min at 37 °C in order for ATX to convert LPC to LPA and choline. Finally, 50 µL of working solution containing 200 μM Amplex Red (Invitrogen, Carlsbad, CA, USA), 4 U/mL HRP (Sigma-Aldrich, St. Louis, MO, USA), 0.4 U/mL choline oxidase (Sigma-Aldrich, St. Louis, MO, USA) in 50 mM Tris-HCl pH 8.0 and 5 mM CaCl2 was added to measure the produced choline. The reaction was monitored at 37 °C in a fluorescence plate reader using excitation at 530 nm and reading at 590 nm, every 5 min for 30 min. The velocity of the reaction and the remaining activity of ATX were calculated at the linear phase of the reaction and dose-response inhibition graphs were plotted with GraphPad Software (GraphPad Software, San Diego, CA, USA). […] In order to evaluate a possible effect of the compounds on the second (choline oxidase) and third (HRP) enzymes of the Amplex Red assay, we also performed the assay in the absence of ATX but in the presence of the compounds. Instead of ATX, we added choline chloride at a final concentration of 2 µM so as the second and third steps of the assay could proceed normally.

By IC50 is commonly meant the midpoint of a concentration-inhibition curve. For `Cc1c(S(=O)(=O)N2CCN(C3c4ccccc4-c4ccccc43)CC2)sc2ccc(Cl)cc12` [HTS08762, 1-[(5-chloro-3-methyl-1-benzothiophen-2-yl)sulfonyl]-4-(9H-fluoren-9-yl)piperazine], in the series “Solubility (Table S1)”, the Solubility entry is recorded as “YES”. Moreover, the IC50 at ATX (read-out: IC50 hATX) is more than 100 µM.

In the case of `O=C(c1cccnc1Oc1ccc(Cl)cc1)N1CCN(C2c3ccccc3-c3ccccc32)CC1` [HTS07938, [2-(4-chlorophenoxy)pyridin-3-yl]-[4-(9H-fluoren-9-yl)piperazin-1-yl],methanone], the Solubility result in “Solubility (Table S1)” is given as “YES”. Further, the IC50 at ATX (read-out: IC50 hATX) is more than 100 µM.

With `O=C(C(=Cc1ccccc1)n1ccnc1)c1ccccc1OCc1ccccc1` [NRB02626, 1-[2-(benzyloxy)phenyl]-2-(1H-imidazol-1-yl)-3-phenylprop-2-en-1-0ne], in the series “Solubility (Table S1)”, the Solubility entry was “YES”. Besides, on ATX (read-out: IC50 hATX), the IC50 was more than 100 µM.

Take `COc1ccc(C2C(C(=O)O)c3ccccc3C(=O)N2Cc2ccc(F)cc2)cc1` (stereo not shown) [PD00668, 2-(4-fluorobenzyl)-3-(4-methoxyphenyl)-1-oxo-1,2,3,4-tetrahydroisoquinoline-4-carboxylic acid]: the Solubility entry in the series “Solubility (Table S1)” is given as “YES”. The IC50 on ATX (read-out: IC50 hATX) is more than 100 µM.

As to `C(=C1c2ccccc2-c2ccccc21)C(C=C1c2ccccc2-c2ccccc21)c1ccccc1` [BTB11132, 9-[3-(9H-fluoren-9-yliden)-2-phenylpropylidene]-9H-fluorene], the Solubility entry in “Solubility (Table S1)” is on record as “YES”. Further, the IC50 at ATX (read-out: IC50 hATX) was more than 100 µM.

As to `FC(F)(F)c1ccc2c(c1)nc(SCc1ccccc1)n2CCc1ccccc1` [RDR02791, 2-benzylsulfanyl-1-(2-phenylethyl)-5-(trifluoromethyl)benzimidazole], the Solubility result in “Solubility (Table S1)” is on record as “YES”. For the same compound, the IC50 on ATX (read-out: IC50 hATX) is more than 100 µM.

Turning to `O=C(CN1CCN(C2c3ccccc3-c3ccccc32)CC1)c1ccc2c(c1)OCO2` [HTS10658, 1-(1,3-benzodioxol-5-yl)-2-[4-(9H-fluoren-9-yl)piperazin-1-yl]ethanone], the Solubility result in “Solubility (Table S1)” is given as “YES”. Also, the IC50 on ATX (read-out: IC50 hATX) was more than 100 µM.

Consider `Nc1ncnc2c1ncn2CCc1ccccc1` [HTS11215, 9-phenethyl-9H-purin-6-amine], for which, in “Solubility (Table S1)”, the Solubility result is recorded as “YES”. For the same compound, the IC50 at ATX (read-out: IC50 hATX) is more than 100 µM.

For `O=c1[nH]nc(-c2ccc(F)cc2)cc1Cc1cn(Cc2ccccc2)c2ccc([N+](=O)[O-])cc12` [HTS01403, 4-[(1-benzyl-5-nitro-1H-indol-3-yl)methyl]-6-(4-fluorophenyl)pyridazin-3(2H)-one], in “Solubility (Table S1)”, the Solubility entry is listed as “YES”. Moreover, at ATX (read-out: IC50 hATX), the IC50 is more than 100 µM.

Take `O=C(CSc1nc2cc(Cl)ccc2o1)Nc1cc(C(F)(F)F)cc(C(F)(F)F)c1` [HTS01561, N-[3,5-bis(trifluoromethyl)phenyl]-2-[(5-chloro-1,3-benzoxazol-2-yl)thio]acetamide]: the Solubility result in the series “Solubility (Table S1)” is on record as “YES”. In addition, the IC50 at ATX (read-out: IC50 hATX) is more than 100 µM.

As to `NC(=NOC(=O)c1cncc(C#Cc2ccccc2)c1)c1cccc(C(F)(F)F)c1` [KM08386, O1-{[5-(2-phenyleth-1-ynyl)-3-pyridyl]carbonyl}-3-(trifluoromethyl)benzene-1-carbohydroximamide], the Solubility entry in the series “Solubility (Table S1)” is “YES”. In addition, the IC50 on ATX (read-out: IC50 hATX) is more than 100 µM.

With `N#Cc1ccc(-c2c(NC(=O)NS(=O)(=O)c3ccccc3Cl)oc(-c3ccco3)c2C#N)cc1` [CD09529, 2-[({[(2-chlorophenyl)sulphonyl]amino}carbonyl)amino]-4-cyano-3-(4-cyanophenyl)-5-(2-furyl)furan], in the series “Solubility (Table S1)”, the Solubility result is listed as “YES”. The IC50 at ATX (read-out: IC50 hATX) is more than 100 µM.

With `O=C(c1ccc(Sc2ccccc2)c([N+](=O)[O-])c1)N(Cc1ccc2c(c1)OCO2)c1ccc(F)cc1` [DSHS00944, N-(1,,3-benzodioxol-5-ylmethyl)-N-(4-fluorophenyl)-3-nitro-4-,phenylsulfanylbenzamide], the Solubility result in the series “Solubility (Table S1)” is reported as “YES”. The IC50 on ATX (read-out: IC50 hATX) was more than 100 µM.

Take `O=C1C2=C([CH]C=C[CH]2)C(=O)N1CN(Cc1csc2ccccc12)CN1C(=O)c2ccccc2C1=O` [PD00399]: the Solubility entry in the series “Solubility (Table S1)” is given as “YES”. The IC50 at ATX (IC50 hATX) was more than 100 µM.

Take `O=S(=O)(Nc1cc(C(F)(F)F)ccc1N1CCc2ccccc2C1)c1cccc2nonc12` [HTS01790, N-[2-(3,4-dihydro-1H-isoquinolin-2-yl)-5-(trifluoromethyl)phenyl]-2,1,,3-benzoxadiazole-7-sulfonamide]: the Solubility result in “Solubility (Table S1)” is given as “YES”. In addition, at ATX (read-out: IC50 hATX), the IC50 was more than 100 µM.

`Cc1ccc(S(=O)(=O)CCSc2n[nH]c(=O)n2-c2ccc(OCc3ccccc3)cc2)cc1` [HTS02873, 4-[4-(benzyloxy)phenyl]-5-({2-[(4-methylphenyl)sulfonyl]ethyl}sulfanyl)-2,4-dihydro-3H-1,2,4-triazol-3-one]: the Solubility result in the series “Solubility (Table S1)” was “YES”. Besides, the IC50 at ATX (read-out: IC50 hATX) was more than 100 µM.

In the case of `CC(=O)Oc1ccccc1C(=CC=C(c1ccccc1)c1ccccc1)N1CCOCC1` [RF01254, 2-(1-morpholino-4,4-diphenylbuta-1,3-dienyl)phenyl acetate], the Solubility entry in “Solubility (Table S1)” is “YES”. Besides, the IC50 at ATX (read-out: IC50 hATX) is more than 100 µM.

Regarding `O=C(NC(=O)c1ccc(-c2ccc(Cl)cc2)s1)Nc1cc(C(F)(F)F)cc(C(F)(F)F)c1` [MBE00201, N-[[3,5-bis(trifluoromethyl)phenyl]carbamoyl]-5-(4-chlorophenyl)thiophene-2-carboxamide], in “Solubility (Table S1)”, the Solubility entry is reported as “YES”. Further, the IC50 on ATX (read-out: IC50 hATX) was more than 100 µM.

As to `Cc1ccc(C2=CC(c3cn(-c4ccccc4)nc3-c3ccccc3)N3C(=O)CSC3=N2)cc1` (stereo not shown) [HTS09893, 5-(1,3-diphenylpyrazol-4-yl)-7-(4-methylphenyl)-5H-[1,3]thiazolo[3,2-a]pyrimidin-3-one], the Solubility entry in the series “Solubility (Table S1)” was “YES”. On ATX (read-out: IC50 hATX), the IC50 was more than 100 µM.

For `Cc1cc(OC(=O)c2c(-c3ccccc3)noc2C)c2cc(F)ccc2n1` [BTB01297, (6-fluoro-2-methylquinolin-4-yl) 5-methyl-3-phenyl-1,2-oxazole-4-carboxylate], the Solubility result in “Solubility (Table S1)” was “YES”. Further, the IC50 at ATX (read-out: IC50 hATX) is more than 100 µM.
